Square brackets hold non-standard residues; d marks the D form. Peptide text beside a SMILES is read from it. * marks the point of attachment. Sta = CC(C)C[C@H](N)[C@@H](O)CC(=O)O; Isovaleryl = CC(C)CC(=O)*
How the values were obtained:
human renin = biological target: T1, human renin (Homo sapiens, UniProt P00797); experiment: human renin inhibition in vitro assay; type: biochemical; details: pH 7.4, 37° C., two hours, human plasma substrate
T1 construct: purchased National Institute for Biological Standards, London
T1 sequence (P00797 67-406): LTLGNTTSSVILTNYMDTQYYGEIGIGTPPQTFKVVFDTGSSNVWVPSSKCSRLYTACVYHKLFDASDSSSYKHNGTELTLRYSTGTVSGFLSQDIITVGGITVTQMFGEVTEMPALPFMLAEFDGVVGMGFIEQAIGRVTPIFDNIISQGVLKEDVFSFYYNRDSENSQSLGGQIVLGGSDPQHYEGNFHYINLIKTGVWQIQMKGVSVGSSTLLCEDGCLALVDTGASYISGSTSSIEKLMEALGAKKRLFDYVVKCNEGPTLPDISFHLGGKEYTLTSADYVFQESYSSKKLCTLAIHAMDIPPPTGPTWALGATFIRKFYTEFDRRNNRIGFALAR
Protocol: Compounds of Formula I were evaluated as inhibitors of human renin in an in vitro assay, as follows: This human renin inhibition test has been previously described in detail [Papaioannou, et. al., Clinical and Experimental Hypertension, A7(9), 1243-1257 (1985)]. Human renin was obtained from the National Institute for Biological Standards, London. In a total volume of 0.25 mL 100 mM Tris-acetate buffer at PH 7.4, 25×10^-6 Goldblatt units of renin, 0.05 mL of plasma from human volunteers taking oral contraceptives, 6.0 mM sodium EDTA, 2.4 mM phenylmethyl sulfonyl fluoride, 1.5 mM 8-hydroxyquinoline, 0.4 mg/mL BSA, and 0.024 mg/mL neomycin sulfate were incubated for two hours at 37° C. in the presence or absence of renin inhibitors. The produced angiotensin I was determined by radioimmunoassay (New England Nuclear kit). Dipeptide glycols to be assayed were solubilized in either ethyl alcohol or DMSO and diluted with 100 mM Tris-acetate buffer at pH 7.4 to the appropriate concentration. The final concentration of organic solvent in the reaction mixture was less than 1%. Control incubations at 37° C. were used to correct for effects of organic solvent on renin activity.

hog renin = biological target: T2, hog renin (Sus scrofa, UniProt A0A287APG1); experiment: hog renin inhibition assay; type: biochemical; details: pH 7.4, 37° C., one hour, synthetic tetradecapeptide substrate
T2 construct: purchased Sigma Chemical Co
Protocol: The hog renin inhibition assay was conducted in a manner similar to the human resin assay, with the following modification: Hog renin was purchased from Sigma Chemical Co. and the synthetic tetradecapeptide substrate was obtained from peninsula Labs Inc. In a final volume of 0.25 mL 100 mM Tris-acetate buffer at pH 7.4, 0.125 m units hog renin, 20 micromolar tetradecapeptide, 6 mM disodium EDTA, 3.2 mM phenylmethyl sulfonyl fluoride, 3 mM 8-hydroxyquinoline, 1.2 mg/mL BSA and 0.024 mg/mL neomycin sulfate were incubated for one hour at 37° C. in the presence or absence of renin inhibitors. The amount of angiotensin I produced was determined as for the human renin inhibition assay.

[1] = tested on: plasma renin activity (PRA); experiment: plasma renin activity (PRA) reduction in Rhesus monkeys, intravenous; details: Macaca mulatta, 0.25 h, furosemide pre-treated Rhesus monkeys, dose reducing PRA to 50% of pretreatment control, read-out: Rhesus (in vivo) PRA Reduction ED50
Protocol: The effect of inhibitor on plasma renin activity (PRA) in Rhesus monkeys was determined as follows: Rhesus monkeys were pre-treated with furosemide (0.2 mg/kg; i.m.) followed by another equal does 6 hours later. Then, 24 hours after the first treatment, the animals were chaired and blood samples collected for pre-treatment controls; immediately thereafter dosing with drug was started. The compounds were administered intravenously every 30 min and blood samples were collected 15 min after each administration. PRA was determined by the method of Sealey and Laragh Cardiovascular Med. 2, 1079-1092 (1977), and the concentration of angiotensin I produced was determined by radioimmunoassay.

Plasma Renin Activity = Plasma Renin Activity of Sodium-Depleted Marmoset, oral activity; type: in vivo, Common marmosets (Callithrix jacchus); details: 20 mg/kg IG
Protocol: The oral activity of compounds of Formula I was determined in vivo in Marmoset monkeys in accordance with the following procedure: Common marmosets (Callithrix jacchus, Charles River) were placed on a modified high protein low sodium diet (Purina, St. Louis, Mo.) for 1 to 2 weeks. On the day of the test an animal was anesthetized with isoflurane and cannulated in the femoral artery and vein for blood pressure monitoring, intravenous saralasin infusion and blood sampling. After allowing the animal to recover from surgery for 2 hr, saralasin was infused at 1 microgram/min for 15 minutes to confirm that the animal's blood pressure was dependent on angiotensin II levels. The marmoset was allowed to stabilize for 30 min after the saralasin infusion. The test compound was administered orally and blood pressure was monitored for 2 hr. Blood samples were taken in K-EDTA for plasma renin activity before, 30 min, and 1 hr after compound administration.

blood pressure = details: after the injection of hog renin into nephrectomized rats; cited from earlier work
[2] = tested on: aspartyl proteases such as pepsin, cathepsin D and renin; details: cited from earlier work

T2 sequence (A0A287APG1 24-407): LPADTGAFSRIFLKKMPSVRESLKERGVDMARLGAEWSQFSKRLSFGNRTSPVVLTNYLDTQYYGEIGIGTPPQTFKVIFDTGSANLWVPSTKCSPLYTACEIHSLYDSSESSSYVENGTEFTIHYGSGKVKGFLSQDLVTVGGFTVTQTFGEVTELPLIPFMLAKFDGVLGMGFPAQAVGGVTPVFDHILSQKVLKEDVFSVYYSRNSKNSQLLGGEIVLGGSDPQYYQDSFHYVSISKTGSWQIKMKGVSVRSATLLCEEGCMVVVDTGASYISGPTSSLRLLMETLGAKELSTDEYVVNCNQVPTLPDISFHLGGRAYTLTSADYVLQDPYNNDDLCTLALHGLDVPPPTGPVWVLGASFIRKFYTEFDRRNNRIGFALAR

CC(C)C[C@H](NC(=O)[C@H](Cc1ccccc1)OC(=O)N1CCOCC1)C(=O)N[C@@H](CC1CCCCC1)[C@@H](O)[C@@H](O)CC(C)C [Example 6, O-(N-morpholinocarbonyl)-3-L-phenyllactyl-L-leucinamide of (2S,3R,4S)-2-amino-1-cyclohexyl-3,4-dihydroxy-6-methylheptane]
IC50 (human renin): 0.07 µM
IC50 (hog renin): 0.16 µM
ED50 [1]: 0.012 mg/kg
Plasma Renin Activity (Plasma Renin Activity; 30 min, Animal No. 206): 2.2 ng AI/ml/hr
Plasma Renin Activity (Plasma Renin Activity; 30 min, Animal No. 207): 0.2 ng AI/ml/hr
Plasma Renin Activity (Plasma Renin Activity; 30 min, Animal No. 208): 1.0 ng AI/ml/hr
Plasma Renin Activity (Plasma Renin Activity; 60 min, Animal No. 206): 0.6 ng AI/ml/hr
Plasma Renin Activity (Plasma Renin Activity; 60 min, Animal No. 207): 0.9 ng AI/ml/hr
Plasma Renin Activity (Plasma Renin Activity; 60 min, Animal No. 208): 2.0 ng AI/ml/hr
Plasma Renin Activity (Plasma Renin Activity; Pretreatment, Animal No. 206): 16.3 ng AI/ml/hr
Plasma Renin Activity (Plasma Renin Activity; Pretreatment, Animal No. 207): 16.4 ng AI/ml/hr
Plasma Renin Activity (Plasma Renin Activity; Pretreatment, Animal No. 208): 15.7 ng AI/ml/hr

CC(C)C[C@H](NC(=O)[C@H](Cc1ccccc1)OC(=O)N1CCOCC1)C(=O)N[C@@H](CC1CCCCC1)[C@@H](O)[C@H](C)O [Example 9, O-(N-morpholinocarbonyl)-3-L-phenyllactyl-L-leucinamide of (2S,3R,4S)-2-amino-1-cyclohexyl-3,4-dihydroxypentane]
IC50 (human renin): 0.1 µM
IC50 (hog renin): 6.6 µM

CC(C)C[C@H](NC(=O)[C@H](Cc1ccccc1)OC(=O)N1CCOCC1)C(=O)N[C@@H](CC1CCCCC1)[C@@H](O)CO [Example 11, O-(N-morpholinocarbonyl)-3-L-phenyllactyl-L-leucinamide of (2S, 3R)-2-amino-1-cyclohexyl-3,4-dihydroxybutane]
IC50 (human renin): 0.49 µM
IC50 (hog renin): 7.2 µM
ED50 [1]: 1.6 mg/kg
Plasma Renin Activity (Plasma Renin Activity; 30 min, Animal No. 205): 0.6 ng AI/ml/hr
Plasma Renin Activity (Plasma Renin Activity; 30 min, Animal No. 209): 1.1 ng AI/ml/hr
Plasma Renin Activity (Plasma Renin Activity; 30 min, Animal No. 221): 48.5 ng AI/ml/hr
Plasma Renin Activity (Plasma Renin Activity; 60 min, Animal No. 205): 4.5 ng AI/ml/hr
Plasma Renin Activity (Plasma Renin Activity; 60 min, Animal No. 209): 0.0 ng AI/ml/hr
Plasma Renin Activity (Plasma Renin Activity; 60 min, Animal No. 221): 24.9 ng AI/ml/hr
Plasma Renin Activity (Plasma Renin Activity; Pretreatment, Animal No. 205): 17.5 ng AI/ml/hr
Plasma Renin Activity (Plasma Renin Activity; Pretreatment, Animal No. 209): 39.3 ng AI/ml/hr
Plasma Renin Activity (Plasma Renin Activity; Pretreatment, Animal No. 221): 37.6 ng AI/ml/hr

CC(C)CC(=O)N[C@H](C(=O)N[C@H](C(=O)N[C@@H](CC(C)C)[C@@H](O)CC(=O)N[C@@H](C)C(=O)N[C@@H](CC(C)C)[C@@H](O)CC(=O)O)C(C)C)C(C)C [pepstatin] (Isovaleryl-VV[Sta]A[Sta]-OH)
blood pressure reduction in vivo (blood pressure): reduce blood pressure in vivo
inhibition of aspartyl proteases [2]: inhibitor of aspartyl proteases
